Measurements taken from US20060293259A1, “Compositions and methods of use of derivatized flavanols” (Mars, Incorporated, priority 2005, published 2006).

What was measured:
[1] = tested on: human umbilical vein endothelial cell (HUVEC); assay: MTT assay for toxic effects in HUVEC; format: cell-based; details: acute effect test, 100 nM, and 10 μM
Description: (§1) Test compounds were evaluated with respect to their potential to acutely (2 hours) and chronically (5 doses given in a 24 h period) modulate NO production. Positive controls (acetylcholine and/or histamine) and negative control L-NNMA (NO synthase inhibitor) were included in all experiments. Cell counts and total protein were used to assess intra-assay variation. Potential toxic effects of tested compounds were also monitored (MTT reduction was measured).
(§2) For the acute effect test, HUVECs were incubated with a single dose of 4′-O-ethyl (−) epicatechin, 4′-O-methyl (−) catechin, 3′-O-methyl (−) catechin which may be prepared as described in Ex. 1 using (−) catechin as a starting material, for 2 and 24 hours at concentrations of 100 nM, […], and 10 μM at 37 C and 5% CO2.

[2] = tested on: human umbilical vein endothelial cell (HUVEC); assay: NO production (NOx in culture medium) by HUVEC; format: cell-based; details: for effect on NO production, chronic effect test: 5 subsequent doses, each for 24 hours; for effect on NO production, acute effect test: single dose, 2 and 24 hours, 100 nM, and 10 μM
Description: Alkylated compounds, obtained as described in Example 1, were investigated for their effect on nitric oxide (NO) production and vasorelaxation using serum-free human umbilical vein endothelial cell (HUVEC) culture system in vitro. NO production by endothelial cells and relaxation of pre-constricted aortic rings are two main markers for evaluating cardiovascular effects of test compounds.
HUVECs obtained from a single donor were cultured in serum free, low protein (0.5 g/l), antibiotic-free cell culture medium supplemented with essential growth factors, nutrients and minerals. […] The cell culture medium was substituted with apo-transferrin, superoxide dismutase, and catalase to exclude secondary effects of test compounds involving their auto-oxidation mediated hydrogen peroxide formation.
as §1
NO production was evaluated by measuring the total amount of all major nitric oxide end products (NOx, including nitrate, nitrite, nitrosothiols) present in the cell culture medium. […] The amount of NO released from the culture medium was subsequently evaluated by measuring the chemiluminescence emitted during the stoichiometrical reaction between ozone and NO using NO Analyzer (Sievers Instruments, Inc. Boulder, Colo.).
The data presented herein were obtained from three experiments and were expressed as the concentration of NO present (in μmol/l) (as NOx) in the cell culture medium+/−standard deviation (SD). The data were corrected for the NOx intrinsically present in the fully supplemented cell culture medium and normalized with respect to the volume of media from which the sample was drawn. Data were analyzed using Student's t-test with a 95% level of confidence. P values equal to or less than […] were defined as statistically significant.
as §2
For the chronic effect test, HUVECs were incubated with 5 subsequent doses of test compounds, each for 24 hours. After each 24 hour treatment, culture medium was replaced.

[3] = tested on: CD62P on platelets associated with monocytes and neutrophils; assay: Platelet activation (CD62P, P-selectin) on platelets associated with leukocytes; format: cell-based, human; details: FIG. 2; collagen 0.125-0.5 μg/ml; 10 min; flavanols 0.3 mM, aspirin 100 μM
Description: (§3) Platelet aggregation was measured using a platelet counting technique, and formation of platelet/monocyte conjugates (P/M) and platelet/neutrophil conjugates (P/N) by flow cytometry. In later experiments the activation state of platelets associated with leukocytes (CD62P) was also measured and also the activation state of the leukocytes themselves (CD11b).
(§4) Flow cytometry was carried out using commercially available fluorescent labelled antibodies on a Facscan (Becton Dickinson, UK) equipped with a 5 W laser operating at 15 mW power and a wavelength of 488 nm or an LSRII flow cytometer (Becton Dickinson, UK) equipped with an additional red Trigon laser operating at a wavelength of 633 nm.
Blood was obtained from healthy volunteers, who denied taking any aspirin or non-steroidal anti-inflammatory drugs (NSAID) in the previous 10 days. This blood was dispensed into graduated polystyrene tubes that contained hirudin (final concentration 50 μg/ml) and a small volume of the flavanol under investigation or ethanol as control. […]
(§5) Platelet-leukocyte conjugate formation was measured in the same stirred samples used to measure platelet aggregation. […] Fluorescence parameters were acquired with logarithmic amplification. Platelet monocyte (P/M) and platelet neutrophil (P/N) conjugates were quantified as median CD42a (FITC) fluorescence of the monocyte (P/M mf) or neutrophil population (P/N mf). Leukocyte activation was measured by CD11b (AlexaFluor647) expression (CD11b-M for monocytes and CD11b-N for neutrophils). Platelet activation (P-selectin expression) was measured by CD62P (PE) positivity of the platelets associated with leukocytes as (CD62P-M on P/M and CD62P-N on P/N).
From this point on it was decided to include measures of the extent of the activation of both platelets and leukocytes in the conjugates that formed following addition of collagen to blood. P-selectin (CD62P) was measured on the platelets associated with leukocytes in the conjugates that formed. Leukocyte activation was measured as the amount of CD11b that was expressed. […]

[4] = tested on: platelet/neutrophil conjugates; assay: Platelet/neutrophil conjugate (P/N) formation in whole blood by flow cytometry; format: cell-based, human; details: collagen 0.125-0.5 μg/ml, 10 min, aspirin 100 μM; for inhibition of platelet/neutrophil conjugate formation (P/N): first experiment (FIG. 1), test flavanols 0.3 mM; for inhibition of P/N: second experiment (FIG. 2), flavanols 0.3 mM
Description: as §3, §4
(§6) Blood was obtained from healthy volunteers, who denied taking any aspirin or non-steroidal anti-inflammatory drugs (NSAID) in the previous 10 days. This blood was dispensed into graduated polystyrene tubes that contained hirudin (final concentration 50 μg/ml) and a small volume of the flavanol under investigation or ethanol as control. The final concentration of ethanol in the blood was always 0.3%. In some experiments, aspirin (ASA) or saline as control was also included in the tube. The tubes were then capped and inverted three times to ensure adequate mixing then placed in the MSA at 37° C. for 30 min before the experiments were performed, during which time the blood was left undisturbed. A further sample of blood was taken into a commercially prepared vacutainer tube that contained K2EDTA as anticoagulant.
(§7) Platelet-leukocyte conjugate formation was measured in the same stirred samples used to measure platelet aggregation. Sub samples were taken 4 min or 10 min following the addition of agonist and transferred into the appropriate antibody or antibody mixture. These were then incubated in the dark at room temperature for not less than 20 min. Following red cell lysis and a washing procedure the cell suspensions were applied to either the FACScan or the LSRII flow cytometer. Leukocytes were identified by logical gating from dot plots of forward scatter (cell size) and side scatter (cell granularity) profiles acquired with linear amplification. Monocytes were identified by their forward scatter-side scatter profile and CD14 (PE) positivity, while neutrophils were identified in the same way but were negative for CD14 expression. The “pan” leukocyte marker, CD45 (PerCP) was also used to identify the leukocyte population. Fluorescence parameters were acquired with logarithmic amplification. Platelet monocyte (P/M) and platelet neutrophil (P/N) conjugates were quantified as median CD42a (FITC) fluorescence of the monocyte (P/M mf) or neutrophil population (P/N mf). Leukocyte activation was measured by CD11b (AlexaFluor647) expression (CD11b-M for monocytes and CD11b-N for neutrophils). Platelet activation (P-selectin expression) was measured by CD62P (PE) positivity of the platelets associated with leukocytes as (CD62P-M on P/M and CD62P-N on P/N).
The FACScan was used to measure the fluorescent probes in experiments where three colors were used together, but the LSRII was needed in order to study four colors. The LSRII is a more sensitive machine and produces higher fluorescence values (mf) than the FACScan. Results obtained on the FACScan cannot be directly compared with the results obtained on the LSRII.
Blood was obtained from three different volunteers and the platelet aggregation and platelet/leukocyte conjugate formation was measured in response to collagen (0, 0.125, 0.25 and 0.5 μg/ml). In this experiment the highest collagen concentration used previously (1 μg/ml) was replaced with a lower concentration of collagen (0.125 μg/ml) to optimise the inhibition brought about by the different flavanols. In these experiments (+) catechin (Sigma) was used at 1 mM, aspirin (100 μM) and the test flavanols at 0.3 mM with the exception of EP−(0.1 mM) and 4 mCAT (0.05 mM). […]

[5] = tested on: platelets in whole blood; assay: Collagen-induced platelet aggregation in whole blood (platelet counting); format: cell-based, human; details: aspirin 100 μM; for inhibition of collagen-induced platelet aggregation: first experiment (FIG. 1), collagen 0.125, 0.25, 0.5 μg/ml, 4 and 10 min, test flavanols 0.3 mM, mean of n=9; for inhibition of collagen induced aggregation: second experiment (FIG. 2), collagen 0.125-0.5 μg/ml, 4 min, flavanols 0.3 mM, n=9
Description: as §3
Blood samples were studied using the Multi-Sample Agitator (MSA) produced by the Medical Engineering Unit (University of Nottingham). The MSA is used to maintain blood samples at 37° C. and to agitate small samples of blood at a stir speed of 1,000 rpm as required.
as §6
Following a 30 min pre-incubation period, aliquots of blood (480 μl) were dispensed into small polystyrene tubes each containing a stir bar and stirred for 2 min in the MSA. After 2 min a solution (20 μl) of agonist or vehicle control were added to the tubes. These were then stirred in the MSA for up to 10 min at which time the platelet aggregates were fixed by mixing a small sub sample with fixative solution in a 1:2 ratio (v/v). The platelet count in the fixed samples was determined using the UltraFlo-100 Whole Blood Platelet Counter. Platelet aggregation was calculated as the percentage loss of single platelets with reference to the platelet count of the EDTA sample.
Blood was obtained from three different volunteers and the platelet aggregation and platelet/leukocyte conjugate formation was measured in response to collagen (0, 0.125, 0.25 and 0.5 μg/ml). In this experiment the highest collagen concentration used previously (1 μg/ml) was replaced with a lower concentration of collagen (0.125 μg/ml) to optimise the inhibition brought about by the different flavanols. In these experiments (+) catechin (Sigma) was used at 1 mM, aspirin (100 μM) and the test flavanols at 0.3 mM with the exception of EP−(0.1 mM) and 4 mCAT (0.05 mM). Aggregation was measured at 4 and 10 min following agonist addition and platelet/leukocyte conjugate formation only at 10 min.
The absolute response of the blood from the different volunteers to collagen varied. This meant that the relative inhibitory effects of a flavanol was dependent on the volunteer's responsiveness to the particular collagen concentration used. For this reason it was decided that an appropriate means of analysing the results, for comparative purposes, would be to calculate the mean values for each flavanol irrespective of the collagen concentration used. (Because, for each of the three blood samples three concentrations of collagen were used, the results are each the means (±sem) of nine individual values).
Blood was obtained from three different volunteers and the platelet aggregation (4 min) and platelet/leukocyte conjugate formation (10 min) was measured in response to collagen (0, 0.125, 0.25 and 0.5 μg/ml). At the same time the activation of platelets and leukocytes in the conjugates were measured by incubation with CD62P and CD11b antibodies. In these experiments aspirin was used at a concentration of 100 μM and derivatized flavanols and procyanidins at 0.3 mM with the exception of EP-(0.1 mM) and 4mCAT (0.05 mM). […]

[6] = tested on: platelet/monocyte conjugates; assay: Platelet/monocyte conjugate (P/M) formation in whole blood by flow cytometry; format: cell-based, human; details: collagen 0.125-0.5 μg/ml, 10 min, aspirin 100 μM; for inhibition of platelet/monocyte conjugation (P/M): first experiment (FIG. 1), test flavanols 0.3 mM; for inhibition of P/M: second experiment (FIG. 2), flavanols 0.3 mM
Description: as §3, §4, §6, §7
The FACScan was used to measure the fluorescent probes in experiments where three colors were used together, but the LSRII was needed in order to study four colors. The LSRII is a more sensitive machine and produces higher fluorescence values (mf) than the FACScan. […]
Blood was obtained from three different volunteers and the platelet aggregation and platelet/leukocyte conjugate formation was measured in response to collagen (0, 0.125, 0.25 and 0.5 μg/ml). […]

[7] = tested on: CD11b on monocytes and neutrophils; assay: Leukocyte activation (CD11b expression) on monocytes and neutrophils; format: cell-based, human; details: FIG. 2; collagen 0.125-0.5 μg/ml; 10 min; flavanols 0.3 mM, aspirin 100 μM
Description: as §3
as §4, with “nm. […]” for “nm.”
as §5, with “P/N). […]” for “P/N).”

Molecule	toxic effects (MTT assay) [1]	effect on NO production, chronic effect test [2]	effect on NO production, acute effect test [2]	inhibition of platelet activation (CD62P) on monocytes and neutrophils [3]	inhibition of platelet/neutrophil conjugate formation (P/N) [4]	inhibition of P/N [4]	inhibition of collagen-induced platelet aggregation [5]	inhibition of collagen induced aggregation [5]	inhibition of platelet/monocyte conjugation (P/M) [6]	inhibition of P/M [6]	inhibition of leukocyte activation (CD11b on monocytes and neutrophils) [7]	effect on NO production, chronic effect test ([2]; 10 μM concentration, p=0.004)
3′-O-methyl (−) catechin	did not have toxic effects	no statistically significant effect	no statistically significant effect									
COc1cc(C2Oc3cc(O)cc(O)c3CC2O)ccc1O (stereo not shown) [3mCAT, 3′OMe catechin]				best inhibited	among the most effective	most effective	significant effect	among the most effective	significant effect	significant effect		
CC(=O)Oc1ccccc1C(=O)O [ASA, acetyl salicylic acid, reference compound]				expected effects	effectively inhibited	expected effects	effectively inhibited	expected effects	effectively inhibited		no effect	
COc1ccc(C2Oc3cc(O)cc(O)c3CC2O)cc1O (stereo not shown) [4mEPCAT, 4′OMe epicatechin]				best inhibited	among the most effective	most effective	significant effect	among the most effective	significant effect	significant effect	among the most effective	
COc1ccc([C@H]2Oc3cc(O)cc(O)c3C[C@@H]2O)cc1O [4′-O-methyl (−) catechin]	did not have toxic effects	no statistically significant effect	no statistically significant effect									
CCOc1ccc([C@H]2Oc3cc(O)cc(O)c3C[C@H]2O)cc1O [4′-O-ethyl (−) epicatechin]	did not have toxic effects		no statistically significant effect									statistically significant increase
